Biological target: T1, SHIP1 (Mus musculus, UniProt Q9ES52)
T1 construct: The asterisk in lanes 1 and 3 indicates the ˜145 kD full-length SHIP protein; His tag (C); made in house; host or cells: E. coli Rosetta-Gami 2 (DE3) pLys
T1 sequence (Q9ES52 1-1191): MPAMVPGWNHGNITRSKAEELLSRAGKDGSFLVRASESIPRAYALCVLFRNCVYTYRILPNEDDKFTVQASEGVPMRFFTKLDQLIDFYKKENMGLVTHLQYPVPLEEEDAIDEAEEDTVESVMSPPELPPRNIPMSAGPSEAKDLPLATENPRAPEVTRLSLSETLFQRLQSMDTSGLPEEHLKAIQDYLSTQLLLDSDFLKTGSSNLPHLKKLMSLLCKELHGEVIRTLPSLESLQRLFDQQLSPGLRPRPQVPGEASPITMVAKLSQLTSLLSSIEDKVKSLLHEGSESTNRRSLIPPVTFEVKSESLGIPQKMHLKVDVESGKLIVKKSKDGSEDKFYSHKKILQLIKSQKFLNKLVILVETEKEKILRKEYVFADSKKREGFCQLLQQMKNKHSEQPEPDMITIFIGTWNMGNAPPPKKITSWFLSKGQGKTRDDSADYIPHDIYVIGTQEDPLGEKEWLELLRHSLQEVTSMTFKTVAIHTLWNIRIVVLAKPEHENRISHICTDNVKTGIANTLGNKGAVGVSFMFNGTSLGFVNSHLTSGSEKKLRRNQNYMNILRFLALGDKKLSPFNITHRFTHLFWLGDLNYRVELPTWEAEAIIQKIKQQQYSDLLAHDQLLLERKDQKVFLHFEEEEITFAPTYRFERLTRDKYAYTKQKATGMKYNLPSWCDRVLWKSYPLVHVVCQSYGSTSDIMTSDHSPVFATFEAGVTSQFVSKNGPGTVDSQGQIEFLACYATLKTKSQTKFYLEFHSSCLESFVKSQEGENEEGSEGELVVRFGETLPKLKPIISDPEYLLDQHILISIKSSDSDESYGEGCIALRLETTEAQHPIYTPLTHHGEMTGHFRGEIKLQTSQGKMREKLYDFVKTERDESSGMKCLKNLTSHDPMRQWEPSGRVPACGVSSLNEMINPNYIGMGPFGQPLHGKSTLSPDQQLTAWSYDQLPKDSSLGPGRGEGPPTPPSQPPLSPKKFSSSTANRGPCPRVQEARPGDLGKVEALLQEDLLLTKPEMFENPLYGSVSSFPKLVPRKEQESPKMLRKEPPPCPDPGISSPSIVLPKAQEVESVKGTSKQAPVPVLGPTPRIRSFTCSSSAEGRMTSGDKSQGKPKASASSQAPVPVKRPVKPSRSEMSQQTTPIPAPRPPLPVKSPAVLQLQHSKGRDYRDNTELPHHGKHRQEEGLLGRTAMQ
Assay: Fluorescence polarization (FP) assay of SHIP1 enzymatic activity
Type: biochemical
Conditions: for SHIP inhibitory activity in FP assay: confirmatory FP assay of screening hits
Text: SHIP is detectable in this expression system as a ˜145 kD protein (FIG. 1a, lane 1). Because of an in-frame Histidine (His) tag on the COOH terminus of SHIP, it can then be purified from E. coli lysates by FPLC over a Ni-containing resin. (FIG. 1a, lane 3). Purified SHIP was routinely obtained in sufficient quantities, using this E. coli expression system and FPLC purification, to conduct high-throughput screening (HTS) of chemical libraries for compounds that inhibit SHIP activity. However, prior to screening, a fluorescence polarization (FP) assay that detects SHIP activity in either a 96- or […] format, seen in FIG. 1b, screen was established. SHIP generates PI(3,4)P2 from its PI(3,4,5)P3 substrate. In the FP assay enzymatic generation of PI(3,4)P2 by SHIP reduces polarized fluorescence (mP) because the fluorescent PI(3,4)P2 “probe” is displaced from a detector protein that binds specifically to PI(3,4)P2. The FP assay is highly specific for SHIP activity in these lysates. No significant 5′-inositol phosphatase activity was detected in E. coli lysates harboring an ‘empty’ pet24b expression vector insert when FPLC fractions where SHIP typically elutes with the imidazole step gradient are analyzed in the FP assay (FIG. 1c).
After preparing purified SHIP and establishing the FP assay, two different chemical libraries, comprising a total of ˜2100 different chemical compounds, were screened. Seventeen compounds capable of inhibiting SHIP activity at μM concentrations were identified in this screen. The compounds were verified for SHIP activity inhibition by repeating the FP assay with the compounds obtained from their respective wells in the replicates of the masterplates for these libraries FIGS. 2-6).
A fluorescence polarization (FP) assay to detect and quantify SHIP2 activity has been previously described [Drees B E, et al., Comb Chem High Throughput Screen (2003) 6(4):321-330], but no assay has been described for the detection of SHIP1. A fluorescence polarization (FP) assay was developed to detect the activity of recombinant SHIP1 (see FIGS. 15a and b) and the FP assay was utilized as a rapid screen to detect compounds in chemical libraries that have inhibitory activity against SHIP1. This screen identified 3α-aminocholestane as a potent inhibitor of SHIP1 enzymatic activity (FIG. 15c). […] This high degree of selectivity could be important, since loss of PTEN function promotes malignancy in parenchymal and hematopoietic tissues. [Yuan T L & Cantley L C Oncogene (2008) 27(41):5497-5510; Zhang J, et al., Nature (2006) 441(7092):518-522; Yilmaz O H, et al., Nature (2006) 441(7092):475-482]
Assay of SHIP1 enzymatic activity: A fluorescent polarization (FP) assay that detects the 5′-inositol phosphatase activity of SHIP1 was developed based on a previously established protocol [Drees B E, et al., Comb Chem High Throughput Screen (2003) 6(4):321-330] and was obtained from Echelon Biosciences (Salt Lake City, USA). Modifications of the protocol included the application of SHIP1 in the assay and an increase in the concentration of MgCl2 to […] to maximize the activity of SHIP1 in this assay. Each enzymatic reaction was performed in a 96 well working plate and added in the following order and concentration: Recombinant SHIP1 (0.1 μg) in PBS+20 mM MgCl2, 100 μM of each individual compound from the NCI Diversity Set and then PI(3,4,5)P3 substrate diluted 1:10 in H2O. The enzymatic reaction was incubated for 30 min at room temperature. The detector, reaction mixture and probe were then combined according to the SHIP2 protocol. Malachite Green Phosphatase Assay Kit was obtained from Echelon Biosciences (Salt Lake City, USA). Assays for SHIP2 were performed according to the manufacturer's protocol. The concentration of SHIP1 and SHIP2 per reaction mixture was […]. PTEN was used at the concentration recommended by the manufacturer.

Compound: OC(c1cc(-c2ccccc2)nc2c1ccc1ccccc12)C1CCCCN1 (stereo not drawn) [NSC13480, (2-phenylbenzo[h]quinolin-4-yl)-piperidin-2-ylmethanol]
- SHIP inhibitory activity in FP assay: inhibit both SHIP1 and SHIP2 enzymatic activity
- SHIP inhibitory activity in FP assay (listed as NSC 13480): SHIP inhibitory activity

Compound: CC(C)CCC[C@@H](C)[C@H]1CC[C@H]2[C@@H]3CC[C@H]4C[C@H](N)CC[C@]4(C)[C@H]3CC[C@]12C [NSC23922, (3R,5S,8R,9S,10S,13R,14S,17R)-10,13-dimethyl-17-[(2R)-6-methylheptan-2-yl]-2,3,4,5,6,7,8,9,11,12,14,15,16,17-tetradecahydro-1H-cyclopenta[a]phenanthren-3-amine]
- concentration with detectable inhibitory activity against SHIP1 (0.1 μg of recombinant SHIP1, FP assay): 2 µM
- inhibition of SHIP1 activity (at 100 μM in the FP assay): inhibits SHIP1 activity
- SHIP inhibitory activity in FP assay: inhibit both SHIP1 and SHIP2 enzymatic activity
- SHIP inhibitory activity in FP assay (listed as NSC 23922): SHIP inhibitory activity

Reference: US9006221B2, “Method of modulating ship activity” (H. Lee Moffitt Cancer Center and Reserach Institute, Inc., priority 2008, dated 2015)
